Where two headings read alike, the source gives them in different places.
How the values were obtained:
[1] = biological target: T1, CAII (Homo sapiens, UniProt P00918); assay: biochemical; type: binding; settings: FTSA, pH 7.0, 37 °C; read-out: Observed Dissociation Constant (Kd_obs), CAII;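 further: recombinant human CAII, thermal shift with ANS dye fluorescence, Kd_obs from fitting melting temperature versus ligand concentration, intrinsic values corrected for deprotonated sulfonamide and Zn-bound water fractions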
T1 construct: made in house; host or cells: E. coli

[2] = biological target: T2, CAI (Homo sapiens, UniProt P00915); assay: biochemical; type: binding; settings: FTSA, pH 7.0, 37 °C; read-out: Observed Dissociation Constant (Kd_obs), CAI
T2 construct: made in house; host or cells: E. coli
T2 sequence (P00915 whole entry): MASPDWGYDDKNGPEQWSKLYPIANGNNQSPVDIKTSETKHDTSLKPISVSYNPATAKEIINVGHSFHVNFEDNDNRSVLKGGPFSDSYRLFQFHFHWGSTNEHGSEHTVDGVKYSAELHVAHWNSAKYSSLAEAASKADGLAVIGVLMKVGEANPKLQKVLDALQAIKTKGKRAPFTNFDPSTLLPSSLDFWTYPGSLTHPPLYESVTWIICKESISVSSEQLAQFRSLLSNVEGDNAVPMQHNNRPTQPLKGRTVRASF

[3] = biological target: T3, CAXII (Homo sapiens, UniProt O43570); assay: biochemical; type: binding; settings: FTSA, pH 7.0, 37 °C; read-out: Observed Dissociation Constant (Kd_obs), CAXII
T3 construct: made in house; host or cells: E. coli
T3 sequence (O43570 25-354): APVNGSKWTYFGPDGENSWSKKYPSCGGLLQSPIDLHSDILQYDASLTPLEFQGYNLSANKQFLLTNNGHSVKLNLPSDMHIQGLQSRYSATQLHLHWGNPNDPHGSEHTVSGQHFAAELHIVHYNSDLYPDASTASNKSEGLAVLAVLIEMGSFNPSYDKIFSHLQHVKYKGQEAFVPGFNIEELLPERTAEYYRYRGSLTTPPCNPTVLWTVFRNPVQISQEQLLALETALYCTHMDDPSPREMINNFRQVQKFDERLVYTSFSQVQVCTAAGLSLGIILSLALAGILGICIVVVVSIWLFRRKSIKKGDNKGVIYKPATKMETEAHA
Experimental: Human CA isozymes were expressed in E. coli (CAI, II, III, IV, VA, VB, VII, XII, XIII, XIV) or mammalian cells (CAVI and CAIX), chromatographically purified following the published protocols [47], and stored at −80 °C. The protein concentration was determined by UV absorption at 280 nm using Beer–Lambert law.
The QIAGEN Rotor-Gene Q was used to carry out the experiments, with a blue channel used for excitation (365 nm) and detection (460 nm). FTSA in this case relies on an extrinsic probe, 8-anilino-1-naphthalenesulfonate (ANS), to detect the fluorescence increase during protein denaturation, from which protein melting temperature (Tm) can be determined. […] The observed affinity of ligands for CAs was determined by plotting the Tm as a function of ligand concentration and then fitting a curve as described previously [48]. […] Samples were heated from 25 °C to 99 °C at the speed of 1 °C/min.
The intrinsic thermodynamic parameters were calculated as described in [40]. The intrinsic reaction of inhibitor binding to CA is shown in Equation (1).
When calculating Kd_int values, these protein and ligand fractions from Equation (1) have to be accounted for (Equations (2) and (3)). The intrinsic dissociation constant is calculated by multiplying Kd_obs value by the corresponding fractions of protein and ligand (Equation (4)). (2) fRSO2NH^−=10^pH−pKa_RSO2NH2/1+10^pH−pKa_RSO2NH2 (3) fCAZnH2O=1−10^pH−pKa_CAZnH2O/1+10^pH−pKa_CAZnH2O (4) Kd_int=Kd_obs×fRSO2NH^−×fCAZnH2O (5) ΔGint0=RTlnKd_int
The intrinsic standard Gibbs energy changes upon binding were calculated using Equation (5). Here, R—universal ideal gas constant (8.3144 J/mol·K), T—absolute temperature (310.15 K).

[4] = biological target: CAXIII (Homo sapiens, UniProt Q8N1Q1); assay: biochemical; settings: Observed Dissociation Constant (Kd_obs), FTSA, pH 7.0, 37 °C;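 further: recombinant human CAXIII melting temperature tracked by ANS fluorescence in thermal shift assay, Tm fitted against ligand concentration, intrinsic value corrects Kd for deprotonated sulfonamide and Zn-bound water fractions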
Chain of CAXIII (Q8N1Q1 whole entry): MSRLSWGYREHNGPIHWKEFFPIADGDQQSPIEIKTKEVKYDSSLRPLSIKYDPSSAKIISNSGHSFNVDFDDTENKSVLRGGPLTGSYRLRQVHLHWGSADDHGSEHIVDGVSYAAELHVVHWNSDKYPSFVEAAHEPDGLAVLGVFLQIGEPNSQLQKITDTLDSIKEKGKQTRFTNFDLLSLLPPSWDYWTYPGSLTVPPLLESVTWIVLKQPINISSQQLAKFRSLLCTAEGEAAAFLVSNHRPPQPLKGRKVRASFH

[5] = biological target: T4, CAIX (Homo sapiens, UniProt Q16790); assay: biochemical; type: binding; settings: FTSA, pH 7.0, 37 °C
T4 construct: made in house

[6] = read-out: Observed Dissociation Constant (Kd_obs), CAIX
[7] = Observed Dissociation Constant (Kd_obs), CAIX
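Wherever Observed Dissociation Constant (Kd obs), CAXII is given: recombinant CAXII made in E. coli, ANS-fluorescence thermal shift with affinity fitted from Tm versus ligand concentration, intrinsic energy from Kd_obs corrected for deprotonated sulfonamide and Zn-water fractions.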

NS(=O)(=O)c1ccc(NCC(CC(=O)NN=Cc2cccc(Cl)c2)C(=O)NN=Cc2cccc(Cl)c2)cc1 (stereo not drawn) [Compound 11a, 4-((2-(2-(3-Chlorobenzylidene)hydrazine-1-carbonyl)-4-(2-(3-chlorobenzylidene)hydrazineyl)-4-oxobutyl)amino)benzenesulfonamide]
Kd [1]: 3.3 µM | Kd [2]: 20 µM | Kd [3]: 100 µM | Kd [4]: 5 µM | melting point: 190 to 191 °C | Kd [5, 6]: 1 µM

NS(=O)(=O)c1ccc(NCC(CC(=O)NN=Cc2cccc(Cl)c2)C(=O)NN=Cc2cccc(Cl)c2)c(Cl)c1 (stereo not drawn) [Compound 11b, 3-Chloro-4-((2-(2-(3-chlorobenzylidene)hydrazine-1-carbonyl)-4-(2-(3-chlorobenzylidene)hydrazineyl)-4-oxobutyl)amino)benzenesulfonamide]
Kd [1]: 0.33 µM | Kd [2]: 2.5 µM | Kd [3]: 33 µM | Kd [4]: 0.33 µM | melting point: 175 to 176 °C | Kd [5, 6]: 0.13 µM

NS(=O)(=O)c1ccc(NCC(CC(=O)NN=Cc2ccc(Cl)cc2)C(=O)NN=Cc2ccc(Cl)cc2)cc1 (stereo not drawn) [Compound 12a, 4-((2-(2-(4-Chlorobenzylidene)hydrazine-1-carbonyl)-4-(2-(4-chlorobenzylidene)hydrazineyl)-4-oxobutyl)amino)benzenesulfonamide]
Kd [1]: 5 µM | Kd [2]: 36 µM | Kd [3]: 66 µM | Kd [4]: 17 µM | melting point: 179 to 180 °C | Kd [5, 6]: 1 µM

NS(=O)(=O)c1ccc(NCC(CC(=O)NN=Cc2ccc(Cl)cc2)C(=O)NN=Cc2ccc(Cl)cc2)c(Cl)c1 (stereo not drawn) [Compound 12b, 3-Chloro-4-((2-(2-(4-chlorobenzylidene)hydrazine-1-carbonyl)-4-(2-(4-chlorobenzylidene)hydrazineyl)-4-oxobutyl)amino)benzenesulfonamide]
Kd [1]: 1.1 µM | Kd [2]: 6.7 µM | Kd [3]: 57 µM | Kd [4]: 1.5 µM | melting point: 211 to 212 °C | Kd [5, 6]: 0.67 µM

NS(=O)(=O)c1ccc(NCC(CC(=O)NN=Cc2ccc(F)cc2)C(=O)NN=Cc2ccc(F)cc2)cc1 (stereo not drawn) [Compound 13a, 4-((2-(2-(4-Fluorobenzylidene)hydrazine-1-carbonyl)-4-(2-(4-fluorobenzylidene)hydrazineyl)-4-oxobutyl)amino)benzenesulfonamide]
Kd [1]: 2.9 µM | Kd [2]: 22 µM | Kd [3]: 23 µM | Kd [4]: 20 µM | melting point: 153 to 154 °C | Kd [5, 6]: 1.4 µM

NS(=O)(=O)c1ccc(NCC(CC(=O)NN=Cc2ccc(F)cc2)C(=O)NN=Cc2ccc(F)cc2)c(Cl)c1 (stereo not drawn) [Compound 13b, 3-Chloro-4-((2-(2-(4-fluorobenzylidene)hydrazine-1-carbonyl)-4-(2-(4-fluorobenzylidene)hydrazineyl)-4-oxobutyl)amino)benzenesulfonamide]
Kd [1]: 0.39 µM | Kd [2]: 2.6 µM | Kd [3]: 23 µM | Kd [4]: 0.34 µM | melting point: 207 to 208 °C | Kd [5, 7]: 0.33 µM

COc1ccc(C=NNC(=O)CC(CNc2ccc(S(N)(=O)=O)cc2)C(=O)NN=Cc2ccc(OC)cc2)cc1 (stereo not drawn) [Compound 14a, 4-((2-(2-(4-Methoxybenzylidene)hydrazine-1-carbonyl)-4-(2-(4-methoxybenzylidene)hydrazineyl)-4-oxobutyl)amino)benzenesulfonamide]
Kd [1]: 3.4 µM | Kd [2]: 32 µM | Kd [3]: 38 µM | Kd [4]: 23 µM | melting point: 168 to 169 °C | Kd [5, 6]: 1.4 µM

COc1ccc(C=NNC(=O)CC(CNc2ccc(S(N)(=O)=O)cc2Cl)C(=O)NN=Cc2ccc(OC)cc2)cc1 (stereo not drawn) [Compound 14b, 3-Chloro-4-((2-(2-(4-methoxybenzylidene)hydrazine-1-carbonyl)-4-(2-(4-methoxybenzylidene)hydrazineyl)-4-oxobutyl)amino)benzenesulfonamide]
Kd [1]: 0.059 µM | Kd [2]: 0.51 µM | Kd [3]: 10 µM | Kd [4]: 0.066 µM | melting point: 198 to 199 °C | Kd [5, 6]: 0.29 µM

NS(=O)(=O)c1ccc(NCC(CC(=O)NN=Cc2ccccc2[N+](=O)[O-])C(=O)NN=Cc2ccccc2[N+](=O)[O-])cc1 (stereo not drawn) [Compound 15a, 4-((2-(2-(2-Nitrobenzylidene)hydrazine-1-carbonyl)-4-(2-(2-nitrobenzylidene)hydrazineyl)-4-oxobutyl)amino)benzenesulfonamide]
Kd [1]: 3.3 µM | Kd [2]: 13 µM | Kd [3]: 50 µM | Kd [4]: 6.7 µM | melting point: 197 to 198 °C | Kd [5, 6]: 1 µM

NS(=O)(=O)c1ccc(NCC(CC(=O)NN=Cc2ccccc2[N+](=O)[O-])C(=O)NN=Cc2ccccc2[N+](=O)[O-])c(Cl)c1 (stereo not drawn) [Compound 15b, 3-Chloro-4-((2-(2-(2-nitrobenzylidene)hydrazine-1-carbonyl)-4-(2-(2-nitrobenzylidene)hydrazineyl)-4-oxobutyl)amino)benzenesulfonamide]
Kd [1]: 0.5 µM | Kd [2]: 2.5 µM | Kd [3]: 50 µM | Kd [4]: 0.4 µM | melting point: 178 to 179 °C | Kd [5, 6]: 0.14 µM

NS(=O)(=O)c1ccc(NCC(CC(=O)NN=Cc2cccc([N+](=O)[O-])c2)C(=O)NN=Cc2cccc([N+](=O)[O-])c2)cc1 (stereo not drawn) [Compound 16a, 4-((2-(2-(3-Nitrobenzylidene)hydrazine-1-carbonyl)-4-(2-(3-nitrobenzylidene)hydrazineyl)-4-oxobutyl)amino)benzenesulfonamide]
Kd [1]: 4 µM | Kd [2]: 20 µM | Kd [3]: 50 µM | Kd [4]: 14 µM | melting point: 218 to 219 °C | Kd [5, 6]: 1.4 µM

NS(=O)(=O)c1ccc(NCC(CC(=O)NN=Cc2cccc([N+](=O)[O-])c2)C(=O)NN=Cc2cccc([N+](=O)[O-])c2)c(Cl)c1 (stereo not drawn) [Compound 16b, 3-Chloro-4-((2-(2-(3-nitrobenzylidene)hydrazine-1-carbonyl)-4-(2-(3-nitrobenzylidene)hydrazineyl)-4-oxobutyl)amino)benzenesulfonamide]
Kd [1]: 0.5 µM | Kd [2]: 3.3 µM | Kd [3]: 130 µM | Kd [4]: 1 µM | melting point: 199 to 200 °C | Kd [5, 6]: 0.13 µM

NS(=O)(=O)c1ccc(NCC(CC(=O)NN=Cc2ccc([N+](=O)[O-])cc2)C(=O)NN=Cc2ccc([N+](=O)[O-])cc2)cc1 (stereo not drawn) [Compound 17a, 4-((2-(2-(4-Nitrobenzylidene)hydrazine-1-carbonyl)-4-(2-(4-nitrobenzylidene)hydrazineyl)-4-oxobutyl)amino)benzenesulfonamide]
Kd [1]: 5.4 µM | Kd [2]: 36 µM | Kd [3]: 79 µM | Kd [4]: 19 µM | melting point: 256 to 257 °C | Kd [5, 6]: 3.3 µM

NS(=O)(=O)c1ccc(NCC(CC(=O)NN=Cc2ccc([N+](=O)[O-])cc2)C(=O)NN=Cc2ccc([N+](=O)[O-])cc2)c(Cl)c1 (stereo not drawn) [Compound 17b, 3-Chloro-4-((2-(2-(4-nitrobenzylidene)hydrazine-1-carbonyl)-4-(2-(4-nitrobenzylidene)hydrazineyl)-4-oxobutyl)amino)benzenesulfonamide]
Kd [1]: 0.57 µM | Kd [2]: 2.6 µM | Kd [3]: 58 µM | Kd [4]: 1.4 µM | melting point: 220 to 221 °C | Kd [5, 7]: 1.4 µM

Cc1ccc(C)n1NC(=O)CC(CNc1ccc(S(N)(=O)=O)cc1)C(=O)Nn1c(C)ccc1C (stereo not drawn) [Compound 19a, N^1,N^4-bis(2,5-Dimethyl-1H-pyrrol-1-yl)-2-(((4-sulfamoylphenyl)amino)methyl)succinamide]
Kd [1]: 1.7 µM | Kd [2]: 10 µM | Kd [3]: 10 µM | Kd [4]: 4 µM | melting point: 195 to 196 °C | Kd [5, 6]: 0.56 µM

NS(=O)(=O)c1ccc(NCC(CC(=O)NNC(=S)Nc2ccccc2)C(=O)NNC(=S)Nc2ccccc2)cc1 (stereo not drawn) [Compound 23a, 2,2′-(2-(((4-Sulfamoylphenyl)amino)methyl)succinyl)bis(N-phenylhydrazine-1-carbothioamide)]
Kd [1]: 2 µM | Kd [2]: 4 µM | Kd [3]: 2.2 µM | Kd [4]: 10 µM | melting point: 136 to 137 °C | Kd [5, 6]: 0.13 µM

Cn1c(CC(CNc2ccc(S(N)(=O)=O)cc2)c2n[nH]c(=S)n2C)n[nH]c1=S (stereo not drawn) [Compound 24a, 4-((2,3-bis(4-Methyl-5-thioxo-4,5-dihydro-1H-1,2,4-triazol-3-yl)propyl)amino)benzenesulfonamide]
Kd [1]: 6.7 µM | Kd [2]: 43 µM | Kd [3]: 3.3 µM | Kd [4]: 19 µM | melting point: 170 to 171 °C | Kd [5, 6]: 0.91 µM

Cn1c(CC(CNc2ccc(S(N)(=O)=O)cc2Cl)c2n[nH]c(=S)n2C)n[nH]c1=S (stereo not drawn) [Compound 24b, 4-((2,3-bis(4-Methyl-5-thioxo-4,5-dihydro-1H-1,2,4-triazol-3-yl)propyl)amino)-3-chlorobenzenesulfonamide]
Kd [1]: 0.25 µM | Kd [2]: 2.9 µM | Kd [3]: 1.7 µM | Kd [4]: 1.3 µM | melting point: 151 to 152 °C | Kd [5, 6]: 0.059 µM

NS(=O)(=O)c1ccc(NCC(Cc2n[nH]c(=S)n2-c2ccccc2)c2n[nH]c(=S)n2-c2ccccc2)cc1 (stereo not drawn) [Compound 25a, 4-((2,3-bis(4-Phenyl-5-thioxo-4,5-dihydro-1H-1,2,4-triazol-3-yl)propyl)amino)benzenesulfonamide]
Kd [1]: 3.3 µM | Kd [2]: 100 µM | Kd [3]: 4 µM | Kd [4]: 25 µM | melting point: 258 to 259 °C | Kd [5, 6]: 0.1 µM
